Values of other authors in patent US20120003119A1, “ANTIMICROBIAL PEPTIDES” (priority 2007, published 2012).

What was measured:
[1] = system: animal red blood cells; details: melittin isolated from bee venom
[2] = combined with either magainin I or magainin II in a 1:1 molar ratio
[3] = system: Pseudomonas aeruginosa; details: tested against the bacteria Pseudomonas aeruginosa; relative to XPF

| Compound | lytic to both microorganisms and animal red blood cells [1] | antimicrobial activity increased [2] | times more active than XPF [3] |
| --- | --- | --- | --- |
| CC[C@H](C)[C@H](NC(=O)CN)C(=O)NCC(=O)N[C@@H](C)C(=O)N[C@H](C(=O)N[C@@H](CC(C)C)C(=O)N[C@@H](CCCCN)C(=O)N[C@H](C(=O)N[C@@H](CC(C)C)C(=O)N[C@H](C(=O)N[C@H](C(=O)NCC(=O)N[C@@H](CC(C)C)C(=O)N1CCC[C@H]1C(=O)N[C@@H](C)C(=O)N[C@@H](CC(C)C)C(=O)N[C@H](C(=O)N[C@@H](CO)C(=O)N[C@@H](Cc1c[nH]c2ccccc12)C(=O)N[C@H](C(=O)N[C@@H](CCCCN)C(=O)N[C@@H](CCCNC(=N)N)C(=O)N[C@@H](CCCCN)C(=O)N[C@@H](CCCNC(=N)N)C(=O)N[C@@H](CCC(N)=O)C(=O)N[C@@H](CCC(N)=O)C(N)=O)[C@@H](C)CC)[C@@H](C)CC)[C@@H](C)O)[C@@H](C)O)C(C)C)C(C)C [melittin] | very lytic |  |  |
| PGLa |  | 20-50 fold | 4-5 times |
